These results are taken from US5298616A, “Sulfated O-polysaccharide-trehaloses” (Hoffmann-La Roche Inc., priority 1990, dated 1994).

The test system of one experiment is rat smooth muscle cells. Nature of the experiment: anti-proliferative activity in cell cultures. Format: cell-based. The conditions noted are these: for Anti-proliferative activity % inhibition: 100 μg/ml test substance, 7 days, vs non-inhibited growth. How it is done:
The anti-proliferative activity of the substances was determined in cell cultures as follows: rat smooth muscle cells (cultivated in DMEM with 10% FCS at 37° C. and 5% CO2) were seeded in 24 well cell culture plates with a density of 8×10^3 cells/well. After 4 hours the number of adhered cells was determined and the substances to be tested ([…]) were added. Cells to which no substance was added served as a comparison and heparin (100 μg/ml) served as a positive control. The cells were incubated for 7 days and then the cell number was determined. The antiproliferative activity of the individual substances was calculated as the % inhibition in comparison to non-inhibited growth: [formula] wherein cell number(d=O) cell number after 4 h cell number(-)=cell number to which no test
substances was added, after 7 days.
cell number(inhib)=cell number with
100 μg/ml of the test substance.

The target in experiment [1] is T1, Factor Xa (Bos taurus, UniProt P00743). Nature of the experiment: Inhibition of Factor Xa in the Chromogenic Substrate Assay. The experiment is classed as biochemical. The following applies: amidolytic activity reduced by 50% vs plasma control; S-2222. On the procedure:
(§1) The blood coagulation-inhibiting activity was determined as follows:
Inhibition of Thrombin or Factor Xa in the Chromogenic Substrate Assay (Teien et al., Thrombosis Research 10, 399-410 (1977)): The test was performed in a Cobas-Bio centrifugal automatic spectrophotometer. The buffer solution used consisted of 50 mM Tris buffer, 180 mM NaCl, 7.5 mM EDTA Na2, 1% PEG 6000 and 0.02% Tween 80, pH 8.4. The sample consisted of 50 μl of buffer, 30 μl of anti-thrombin Ill (1 U/ml), Kabi Diagnostics) and 20 μl of plasma which contained various concentrations of test compounds. 30 μl of sample solution and 20 μl of water with 180 μl of thrombin were added to the test cuvette in the automatic analyzer. After incubation at 37° C. for 240 seconds 60 μl of S-2238 (H-D-Phe-Pip-Arg-NH.pNA, Kabi Diagnostics, Mondal, Sweden, 0.75 mM in water) and 20 μl of water were added. The liberation of pNA (p-nitroaniline) was followed during 60 seconds at 405 nm in 10 second intervals in comparison to water as the blank. The inhibitory activity is given as the IC50, which is the concentration [μg/ml] at which the amidolytic activity of thrombin is reduced by 50% in comparison to the plasma control value.
The inhibition of Factor Xa was measured in the same manner using a solution of Factor Xa (2.8 nkat/ml and 2 mM S-2222 (Bz-CO-Ile-Glu-Arg-NH.pNA, Kabi Diagnostics) in water in place of thrombin and, respectively, S-2238.

Experiment [2] concerns the target T1, Factor Xa. As to the kind of experiment: anti-Xa Clotting Assay. The experiment is classed as biochemical. The following applies: concentration which doubles the coagulation time vs control; citrated plasma. On the procedure: as §1
anti-Xa Clotting Assay: 25 μl of citrated plasma having various concentrations of test compound are mixed with 75 μl of Factor Xa (Diagnostic Reagents, Thame, Oxon, Great Britain) diluted 1:100 in 0.63% citrate buffer (pH 7.3) which contains 41 mM imidazole, 82 mM NaCl and 0.1% albumin. After warming to 37° C. for 2 minutes 200 μl of a 1:1 mixture of Factor X Deficient Plasma (Diagnostic Reagents) and Platelet Substitute (Diagnostic Reagents) are added and the mixture is incubated at 37° C. for 20 seconds. After the addition of 100 μl of prewarmed 50 mM calcium chloride solution the coagulation time is measured in a Fibrometer.
(§2) The activity of the test compound is given as the IC50, which is that concentration [μg/ml] which leads to a coagulation time which is double the control value.

Another experiment relates to citrated human plasma. As to the kind of experiment: aPTT (activated partial thromboplastin time) Test. The experiment is classed as biochemical. The following applies: concentration which doubles the coagulation time vs control. How it is done: as §1
aPTT (activated partial thromboplastin time) Test (see Walenga et al., CRC Critical Reviews in Laboratory Sciences 22 (4) 361-389 (1986)): 100 μl of citrated human plasma, which contains various concentrations of test compound, is incubated at 37° C. for 8 minutes with 100 μl of Activated Thrombofax (Ortho Diagnostics, Raritan, N.J., U.S.A.). 100 μl of prewarmed 25 mM calcium chloride solution are then added and the coagulation time is measured in a Fibrometer Coagulation Timer (Becton Dickinson, Basle).
as §2

Another experiment concerns the target thrombin (Homo sapiens, UniProt P00734). Nature of the experiment: Inhibition of Thrombin in the Chromogenic Substrate Assay. The conditions noted are these: amidolytic activity reduced by 50% vs plasma control; anti-thrombin III, S-2238. The experiment is classed as biochemical. On the procedure:
as §1
The buffer solution used consisted of 50 mM Tris buffer, 180 mM NaCl, 7.5 mM EDTA Na2, 1% PEG 6000 and 0.02% Tween 80, pH 8.4. The sample consisted of 50 μl of buffer, 30 μl of anti-thrombin Ill (1 U/ml), Kabi Diagnostics) and 20 μl of plasma which contained various concentrations of test compounds. 30 μl of sample solution and 20 μl of water with 180 μl of thrombin were added to the test cuvette in the automatic analyzer. […] The liberation of pNA (p-nitroaniline) was followed during 60 seconds at 405 nm in 10 second intervals in comparison to water as the blank.

T1 sequence (P00743 234-492 limits assumed): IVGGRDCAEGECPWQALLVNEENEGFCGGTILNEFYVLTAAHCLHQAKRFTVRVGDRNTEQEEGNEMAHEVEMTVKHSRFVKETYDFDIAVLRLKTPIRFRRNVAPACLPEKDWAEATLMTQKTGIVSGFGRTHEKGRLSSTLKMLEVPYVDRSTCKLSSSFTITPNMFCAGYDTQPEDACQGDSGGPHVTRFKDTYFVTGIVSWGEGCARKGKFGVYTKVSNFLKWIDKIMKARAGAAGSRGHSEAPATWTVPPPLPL

As to Heparin [reference compound], in the experiment with rat smooth muscle cells (result in words), the anti-proliferative activity entry is on record as “anti-proliferatively active”. In addition, the “Anti-coagulation activity IC50, Amidolytic activity F.Xa” value on Factor Xa [1] is 2.7 µg/mL. In addition, the “Anti-coagulation activity IC50, Coagulation inhibition Xa” value on Factor Xa [2] was found to be 0.6 µg/mL. Moreover, in the experiment with citrated human plasma, the “Anti-coagulation activity IC50, Coagulation inhibition aPTT” value came out at 1.2 µg/mL. Besides, the “Anti-coagulation activity IC50, Amidolytic activity Thrombin” value on thrombin was found to be 1.9 µg/mL.

For “sulphated 4-O-(β-D-glucopyranosyl) -α,α-D-trehalose [Example 2C]”, the “Anti-proliferative activity % inhibition” value in the experiment with rat smooth muscle cells is 38%. In addition, at Factor Xa [1], the “Anti-coagulation activity IC50, Amidolytic activity F.Xa” value was more than 1000 µg/mL. Moreover, the “Anti-coagulation activity IC50, Coagulation inhibition Xa” value at Factor Xa [2] worked out at 115 µg/mL. Further, in the experiment with citrated human plasma, the “Anti-coagulation activity IC50, Coagulation inhibition aPTT” value amounted to 40 µg/mL. For the same substance, the “Anti-coagulation activity IC50, Amidolytic activity Thrombin” value on thrombin is more than 1000 µg/mL.

For the substance “sulphated 4-O-(β-D-maltosyl)-α,α-D-trehalose [Example 3C]”, the “Anti-proliferative activity % inhibition” value in the experiment on rat smooth muscle cells is on record as 59%. The “Anti-coagulation activity IC50, Amidolytic activity F.Xa” value on Factor Xa [1] is more than 1000 µg/mL. Besides, the “Anti-coagulation activity IC50, Coagulation inhibition Xa” value on Factor Xa [2] is 33.5 µg/mL. The “Anti-coagulation activity IC50, Coagulation inhibition aPTT” value with citrated human plasma is 12 µg/mL. For the same substance, the “Anti-coagulation activity IC50, Amidolytic activity Thrombin” value on thrombin was more than 1000 µg/mL.

Take “sulphated 4-O -(β-D-maltotriosyl)-α,α-D-trehalose [Example 4C]”: the “Anti-proliferative activity % inhibition” value with rat smooth muscle cells turned out to be 64%. Further, the “Anti-coagulation activity IC50, Amidolytic activity F.Xa” value at Factor Xa [1] is more than 1000 µg/mL. Moreover, the “Anti-coagulation activity IC50, Coagulation inhibition Xa” value on Factor Xa [2] is 32 µg/mL. In addition, the “Anti-coagulation activity IC50, Coagulation inhibition aPTT” value with citrated human plasma was found to be 11 µg/mL. Further, on thrombin, the “Anti-coagulation activity IC50, Amidolytic activity Thrombin” value is more than 1000 µg/mL.

As for “sulphated 4-O-(α-D-maltotriosyl)-α,α-D-trehalose [Example 1G]”, the “Anti-proliferative activity % inhibition” value in the experiment on rat smooth muscle cells is given as 57%. Moreover, the “Anti-coagulation activity IC50, Amidolytic activity F.Xa” value on Factor Xa [1] was 960 µg/mL. Further, the “Anti-coagulation activity IC50, Coagulation inhibition Xa” value on Factor Xa [2] is 31 µg/mL. In the experiment with citrated human plasma, the “Anti-coagulation activity IC50, Coagulation inhibition aPTT” value amounted to 11 µg/mL. Also, on thrombin, the “Anti-coagulation activity IC50, Amidolytic activity Thrombin” value was more than 1000 µg/mL.

For “sulphated 4,4'-bis-O-(β-D-maltosyi)-α,α-D-trehalose [Example 6D]”, the “Anti-proliferative activity % inhibition” value in the experiment on rat smooth muscle cells stood at 67%. Besides, on Factor Xa [1], the “Anti-coagulation activity IC50, Amidolytic activity F.Xa” value was 900 µg/mL. Also, at Factor Xa [2], the “Anti-coagulation activity IC50, Coagulation inhibition Xa” value worked out at 28.5 µg/mL. Further, the “Anti-coagulation activity IC50, Coagulation inhibition aPTT” value with citrated human plasma was determined as 14.5 µg/mL. Also, the “Anti-coagulation activity IC50, Amidolytic activity Thrombin” value at thrombin is more than 1000 µg/mL.

Turning to “sulphated 4,4'-bis -O-(β-D-glucopyranosyl)-α,α-D-trehalose [Example 7C]”, in the experiment on rat smooth muscle cells, the “Anti-proliferative activity % inhibition” value is 49%. Besides, the “Anti-coagulation activity IC50, Amidolytic activity F.Xa” value at Factor Xa [1] was more than 1000 µg/mL. Besides, on Factor Xa [2], the “Anti-coagulation activity IC50, Coagulation inhibition Xa” value amounted to 34 µg/mL. The “Anti-coagulation activity IC50, Coagulation inhibition aPTT” value in the experiment on citrated human plasma is 13.5 µg/mL. In addition, the “Anti-coagulation activity IC50, Amidolytic activity Thrombin” value on thrombin is more than 1000 µg/mL.

As for “sulphated 4-O-(β-D-cellobiosyl)-α,α-D-trehalose [Example 5C]”, the “Anti-proliferative activity % inhibition” value in the experiment on rat smooth muscle cells was determined as 39%. On Factor Xa [1], the “Anti-coagulation activity IC50, Amidolytic activity F.Xa” value is more than 1000 µg/mL. Moreover, on Factor Xa [2], the “Anti-coagulation activity IC50, Coagulation inhibition Xa” value was determined as 69 µg/mL. Further, the “Anti-coagulation activity IC50, Coagulation inhibition aPTT” value in the experiment with citrated human plasma is 33 µg/mL. Also, the “Anti-coagulation activity IC50, Amidolytic activity Thrombin” value on thrombin was more than 1000 µg/mL.
